# Assay results from US20220204563A1, “DELIVERY PEPTIDES AND METHODS OF USING THE SAME” (NATIONAL INSTITUTE FOR BIOTECHNOLOGY IN THE NEGEV LTD., priority 2019, published 2022).
# Primed or numbered codes have the meaning given here. No end group written: not given here. TAMRA = tetramethylrhodamine fluorescent label; FITC′ = not defined here
# Tests used:
# [1] = system: oocytes; experiment: In vivo assay: peptide injection into the hemolymph of reproductive females, confocal imaging of oocytes and gills; design: species or system Macrobrachium rosenbergii; settings: for Fluorescent emission in oocytes after injection: mixture of both peptides injected, 5 μg/gr body weight, oocytes dissected 24 h after injection
# Method: (§1) Ovary pieces from in-vitro or in-vivo experiments were washed with Schneider's drosophila medium without the peptides for 5 min. Then, the pieces were torn apart on a slide in one drop of the medium to better view the individual oocytes. The slides were inspected, and images were taken by a confocal microscope FV1000 (Olympus) at ×60 magnification. The excitation laser wavelength was 561 nm for the TAMRA labelled peptides and 488 nm for FITC labelled control peptides, and the emission was obtained at […], respectively.
# Solution containing the culture medium, Vg-TAMRA and scVg-FITC peptides were injected (5 μg/gr body weight) into the hemolymph sinus at the base of the fifth walking leg of a M. rosenbergii reproductive females (14.3±0.4 gr, with opaque white to yellowish ovary, FIG. 2, left). For the injection, a manual micro dispenser syringe was used (Drummond®). After injection, the animals were kept at 28° C. for 24 hours in the culture facility for freshwater prawn M. rosenbergii, at Ben-Gurion University. Vg-dsEGFR or Vg-dsPAX6 conjugates (5:1 molar ratio for conjugation, 5 μg dsRNA/g body weight) were injected twice a week at the first two weeks. From the third week, the injections were performed once a week. The females were monitored daily and upon appearance of the reproductive molt, the females were released to a tank with a male for fertilization. The embryos' development on the pleopods of their mother (FIG. 2, middle) were monitored under stereoscope, and a fraction was collected for RNA extraction and subsequent quantitative PCR analysis.
# To determine whether the Vg-TAMRA peptide has the capability to specifically in vivo internalize into oocytes, a mixture of the Vg-TAMRA and the control-FITC peptides were injected into the prawn circulatory system. […] To verify that the two peptides did circulate through the prawn female body, the prawn gills were dissected and examined under the confocal microscope.
# [2] = system: M. rosenbergii early vitellogenic oocytes; experiment: In vitro incubation of ovary pieces with fluorophore-labelled peptides, confocal imaging of oocytes; type: cell-based, Macrobrachium rosenbergii; settings: for Distribution of TAMRA-labelled peptide in the oocyte: ovary pieces incubated with Vg-TAMRA or scVg-TAMRA separately, 6 μM, confocal; for Endocytosis into oocytes, distribution of the two fluorescent-labelled peptides: simultaneous incubation with Vg-TAMRA and control-FITC, 6 μM each; for Fluorescent intensity in oocytes compared to Vg246-253-TAMRA: ovary slices in vitro, TAMRA emission
# Method: as §1
# M. rosenbergii ovary pieces of 1-3 mm with oocytes diameter of ˜150 μm (early vitellogenic ovaries) were incubated in a sterile 24-wells plate, 2 cm^2 growth area each well (Biofil®) in a biological hood. Each piece was incubated with 250 μl Schneider's drosophila culture medium with osmolality fixed to 420 mOsm/L and supplemented with FBS (10%), PSA (final concentration: Penicillin—100 units/mL, streptomycin—0.1 mg/mL, Amphotericin B—0.25 μg/mL and insulin 10 mg/ml insulin in 25 mM HEPES). The ovary pieces were incubated either with Vg-TAMRA or scVg-TAMRA or with both Vg-TAMRA and scVg-FITC simultaneously (6 μM each). The plate was incubated at room temperature for 24 and 48 hours. To test dsRNA piggybacking, 55 pmole dsRNA was conjugated to 275 pmole either Vg-TAMRA or scVg-FITC peptides. Ovary pieces were incubated with the dsGFP-Vg-TAMRA or dsGFP-scVg-FITC conjugates and cultured as stated above.
# To evaluate the endocytosis capability of oocytes with respect to the newly designed Vg-derived peptides, an in vitro experiment was performed. Vg-derived and control peptides, labeled with TAMRA fluorophore, were detected by confocal microscopy. Both peptides were detected in the vicinity of the oocyte membrane (FIG. 4). […] In order to get the highest certainty regarding the internalization specificity of the Vg-derived peptides, the Vg and control peptides were labelled with an additional fluorophore (FIGS. 4E-4H), Vg peptide was labelled with TAMRA (FIGS. 4E and 4H), while the control peptide has been labelled with FITC molecule (FIG. 4F). A similar result was obtained in this experiment showing distinct distribution of the two fluorescent-labelled peptides.
# Further, a dose dependent test with respect to Vg-derived peptides penetration into oocytes using Vg descending concentrations was performed (FIG. 5). Unlike the control scrambled peptide (scVg), the Vg peptide maintained similar pattern of distribution in the oocyte throughout the descending concentrations (FIG. 5, upper row).
# The inventors further examined the capability and efficacy of shorter/partial sequences derived from the peptide of the invention to being internalized into M. rosenbergii oocytes. Further, the inventors examined whether homologous peptides derived from a different decapod crustacean, e.g., Litopenaeus vannamei, would also be internalized into M. rosenbergii oocytes.
# The mentioned peptides were incubated in vitro with ovary slices to evaluate their internalization. […] In contrast to that, the Vg-derived peptides were capable to enter the oocyte as they were observed beyond the follicular cells inside the oocytes (red dots, FIGS. 11B-11G). […] Moreover, both L. vannamei Vg derived peptides were capable to endocytose into M. rosenbergii oocytes (FIGS. 11F-11G).
# [3] = Dynamic light scattering (DLS) of dsRNA-peptide conjugates; type: physicochemical; settings: 700 bp dsRNA, dsRNA:peptide ratio 1:30 (FIG. 6B dots)
# Method: Constant amount of dsRNA (25 pmole) solution was mixed with an increasing amount of peptide solution in an Eppendorf vial (˜1.5 mL). The total conjugation reaction volume was completed to 15 μl with DEPC treated DDW. The solutions were incubated at room temperature for 20 minutes. To evaluate peptide-dsRNA conjugation, a 1.3% agarose gel was prepared in TAE buffer. Conjugates were mixed with equal volume of loading buffer (50% glycerol and 0.5 M EDTA). Peptide-dsRNA conjugates were separated for 30 minutes at 120 V. Fluorescent emission of conjugates in gels were scanned by using a Typhoon FLA 9500 gel system (GE Healthcare®).
# In order to verify whether the Vg-derived peptide was capable to piggyback and internalize a large molecule such as a dsRNA into the oocytes, a conjugation approach between the peptide and dsRNA was developed. The Vg-TAMRA and the control-FITC peptides were synthesized with a cationic poly lysine-histidine tail (KH) to allow electrostatic interactions between the peptides and the negatively charged dsRNA. The dsRNA-peptide complexes prepared at different molar ratios (peptide/dsRNA ratio: 1, 5, 10, 20 and 30) were characterized with two different assays: dynamic light scattering (DLS) and separation on agarose gel.
# dsRNA of 700 bp (dsEGFR) and another one a mix of 200 and 230 bp dsRNA (dsPAX6) were prepared (FIG. 3A). […]
substance,measurement,setting,value
CDKNIIKPAYGSYKYVEAHQESVLRK-TAMRA (CDKNIIKPAYGSYKYVEAHQESVLRK-{TAMRA}) [Vg-TAMRA],Detection of peptide in gills after injection,[1]; early vitellogenic female injected simultaneously with both peptides,can be detected in the gills
same,Fluorescent emission in oocytes after injection,[1],a clear 564 nm emission was seen inside the oocytes
same,Fluorescence intensity in comparison to the control peptide,"[2]; descending concentrations 12-0.75 μM, fluorescence and overlay images",higher intensity of the red TAMRA emission
same,Distribution of TAMRA-labelled peptide in the oocyte,[2],distributed mainly at the cytosolic side of the oocyte membrane
same,Fluorescent signal in oocytes,[2]; peptide concentration 0.75 μM,No signal was detected
same,Fluorescent signal in oocytes,[2]; peptide concentration 1.5 μM,clear fluorescent signal
same,Fluorescent signal in oocytes,[2]; peptide concentration 6 μM,clear fluorescent signal
same,Fluorescent signal in oocytes,[2]; peptide concentration 12 μM,clear fluorescent signal
same,"Endocytosis into oocytes, distribution of the two fluorescent-labelled peptides",[2],clearly observed
"CQAPVKLIAYDKNKYEHEYRISVSGK-FITC (CQAPVKLIAYDKNKYEHEYRISVSGK-{FITC′}) [scVg-FITC, reference compound]",Detection of peptide in gills after injection,[1]; in vivo,can be detected in the gills
same,Fluorescent emission in oocytes after injection,[1],absent from oocytes
same,Internalization into M. rosenbergii oocytes,[2]; ovary slices incubated with Vg-derived peptide TAMRA and scVg-FITC simultaneously,observed only on the outer area of the oocyte
same,"Endocytosis into oocytes, distribution of the two fluorescent-labelled peptides",[2],only on the outer surface of the membrane
"CQAPVKLIAYDKNKYEHEYRISVSGK-TAMRA (CQAPVKLIAYDKNKYEHEYRISVSGK-{TAMRA}) [scVg-TAMRA, reference compound]",Distribution of TAMRA-labelled peptide in the oocyte,[2],mainly dispersed on the outer surface of the oocyte
same,Fluorescent signal in oocytes,[2]; peptide concentration 0.75 μM,No signal was detected
same,Fluorescent signal in oocytes,[2]; peptide concentration 1.5 μM,no apparent signal
same,Fluorescent signal in oocytes,[2]; peptide concentration 6 μM,weak fluorescent signal
same,Fluorescent signal in oocytes,[2]; peptide concentration 12 μM,weak fluorescent signal
DKNIIKPAYGSYKYVEAK-TAMRA (DKNIIKPAYGSYKYVEAK-{TAMRA}) [Vg237-253-TAMRA],Fluorescent intensity in oocytes compared to Vg246-253-TAMRA,[2],Weaker florescent intensity
DKNIIKPK-TAMRA (DKNIIKPK-{TAMRA}) [Vg237-244-TAMRA],Fluorescent intensity in oocytes compared to Vg246-253-TAMRA,[2],Weaker florescent intensity
KHKHKHKHKHKHKHKHKHCDKNIIKPAYGSYKYVEAHQESVLRK-TAMRA (KHKHKHKHKHKHKHKHKHCDKNIIKPAYGSYKYVEAHQESVLRK-{TAMRA}) [KH9-Vg],Particle radius (DLS),[3],~100 nm
Vg235-260-TAMRA: 26 amino acid VgR interacting region peptide; probably the Vg-TAMRA peptide of SEQ ID NO: 22 (CDKNIIKPAYGSYKYVEAHQESVLRK; not fully specified (C-terminus); also: TAMRA label),Fluorescent intensity in oocytes compared to Vg246-253-TAMRA,[2],Weaker florescent intensity
